How the values were obtained:
[1] = tested on: serine hydrolase activities detected in PC3 cells; assay: Competitive ABPP-MudPIT of PC3 cells treated in situ; type: cell-based, human; conditions: 1 uM in situ treatment, 4 hr; >30 serine hydrolase activities detected in PC3 cells
Experimental: Inhibitors were dissolved in DMSO and diluted into media or buffer prior to cell or proteome treatment, respectively. For in vitro treatment, final DMSO concentration was 4%. For in situ treatments of cells for ABPP, lipid measurements, migration, cell-survival, and invasion assays, 2×10^6 cells were seeded in 6 cm dishes (˜100% confluency) 24 h prior to inhibitor pre-treatment (in DMSO at 0.1% final concentration) in serum-free media (3 mL) for the designated time before harvesting cells for ABPP or lipid measurements or before the initiation of migration, cell-survival, and invasion assays.
Competitive ABPP-MudPIT experiments were performed as previously described (Nomura et al., 2010). Briefly, 1 mg of proteome was labeled with 5 μM FP-biotin, followed by solubilization with 1% Triton X-100, denaturation by SDS and heating, avidin precipitation of labeled proteins, and on-bead tryptic digest. Tryptic peptides were then loaded on to a biphasic (strong cation exchange/reverse phase) capillary column and analyzed by two-dimensional liquid chromatography (2D-LC) separation in combination with tandem mass spectrometry using an Agilent 1100 LC system coupled with a ThermoFisher LTQ linear ion trap mass spectrometer. Spectral counts are reported as the average of three samples with the standard error of the mean (SEM).

brain KIAA1363 = target: T1, brain KIAA1363 (Mus musculus, UniProt Q8BLF1); assay: Competitive ABPP of brain proteomes from inhibitor-treated mice; type: in vivo
T1 construct: ABPP analysis of KIAA1363 activity in mouse brain membrane proteome; from tissue; host or cells: mouse brain (membrane fraction)
T1 sequence (Q8BLF1 1-408): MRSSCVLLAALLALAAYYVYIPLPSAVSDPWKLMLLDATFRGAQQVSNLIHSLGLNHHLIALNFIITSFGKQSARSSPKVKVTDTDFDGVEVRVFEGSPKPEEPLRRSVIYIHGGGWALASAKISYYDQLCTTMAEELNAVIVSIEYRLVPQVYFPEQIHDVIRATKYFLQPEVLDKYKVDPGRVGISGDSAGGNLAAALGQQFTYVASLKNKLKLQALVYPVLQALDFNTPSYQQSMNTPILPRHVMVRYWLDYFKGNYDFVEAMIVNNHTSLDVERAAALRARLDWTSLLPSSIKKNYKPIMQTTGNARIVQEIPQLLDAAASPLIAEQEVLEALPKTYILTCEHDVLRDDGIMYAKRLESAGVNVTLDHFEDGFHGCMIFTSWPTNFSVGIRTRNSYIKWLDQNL
Experimental: Tissues were Dounce-homogenized in PBS, pH 7.4, followed by a low-speed spin (1,400 g, 5 min) to remove debris. The supernatant was then subjected to centrifugation (100,000×g, 45 min) to provide the cytosolic fraction in the supernatant and the unsoluble fraction as a pellet. The pellet was washed and resuspended in PBS buffer by sonication. Total protein concentration in each fraction was determined using a protein assay kit (Bio-Rad). Samples were stored at −80° C. until use.
For ABPP experiments, cell lysate and tissue proteomes were treated with 1 μM FP-rhodamine for 30 min at room temperature (50 μL total reaction volume) as described previously (Nomura et al., 2010). Reactions were quenched with one volume of standard 4×SDS/PAGE loading buffer (reducing), separated by SDS/PAGE (10% acrylamide), and visualized in-gel with a Hitachi FMBio IIe flatbed fluorescence scanner (MiraiBio). Inhibitors were preincubated prior (30 min or 4 h at 37° C. in vitro or in situ, respectively) to the addition of FP-rhodamine.
JW480 was administered by oral gavage (in PEG300, 4 μL/g mouse) or intraperitoneally (in 18:1:1 v/v/v solution of saline:ethanol:emulphor, 10 μL/g). After the indicated amount of time, mice were anesthetized with isoflurane and killed by decapitation. Tissues were removed and then flash frozen in liquid N2. Tissues were stored at −80° C. until use. Animal experiments were conducted in accordance with the guidelines of the institutional Animal Care and Use Committee of The Scripps Research Institute.

KIAA1363 = target: T2, KIAA1363 (Homo sapiens, UniProt Q6PIU2); assay: 2-acetyl MAGE hydrolytic activity assay in cancer cells treated in situ; type: cell-based; design: PC3 cancer cells, which have high endogenous KIAA1363 levels; endogenous in cells; host or cells: PC3 (2-acetyl MAGE assay also DU145 and SKOV3); conditions: JW480 1 μM, 48 h; PC3 and DU145 cells
T2 sequence (Q6PIU2 1-408): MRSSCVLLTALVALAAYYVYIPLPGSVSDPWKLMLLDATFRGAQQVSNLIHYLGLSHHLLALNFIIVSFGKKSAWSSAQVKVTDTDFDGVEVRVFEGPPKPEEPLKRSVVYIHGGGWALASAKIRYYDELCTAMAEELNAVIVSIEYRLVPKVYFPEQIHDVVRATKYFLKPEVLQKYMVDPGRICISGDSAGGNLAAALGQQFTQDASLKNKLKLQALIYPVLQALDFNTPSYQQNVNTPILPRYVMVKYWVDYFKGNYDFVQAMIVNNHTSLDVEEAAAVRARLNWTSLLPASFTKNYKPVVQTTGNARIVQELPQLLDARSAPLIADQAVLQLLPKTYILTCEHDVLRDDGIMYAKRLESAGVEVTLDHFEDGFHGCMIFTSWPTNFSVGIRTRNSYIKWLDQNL
Experimental: Cells were pretreated with KIAA1363 inhibitors in situ (for 4 hr in serum-free F-12K media before harvesting cells by scraping) or in vitro (for 30 min at 37° C. in PBS) before addition of 2-acetyl MAGE (100 μM) to cell lysates at room temperature for 30 min in a volume of 200 μL. Reactions were quenched with 600 μL 2:1 chloroform:methanol and 10 nmol of C12:0 MAGE internal standard was added. The organic layer was extracted and 30 μL injected into an Agilent 1100-MSD LC-MS. LC-MS settings were as previously described (Chiang et al., 2006). Product levels (C16:0 MAGE) were quantified in relation to the internal standard. Specific activity was determined during the linear phase of enzymatic reactions (i.e., less than 20% substrate utilized).
Cell lysates (20 μg) in Tris buffer were then incubated with lipid (100 mM, e.g., 2-acetyl MAGE for KIAA1363 activity) at room temperature for 30 min in a volume of 200 ml. Reactions were quenched with 600 ml 2:1 chloroform:methanol and 10 nmol of C12:0 MAGE internal standard was added. […] Product levels (C16:0 MAGE for KIAA1363 activity) were quantified in relation to internal standard levels and standard curves generated between varying lipid concentration versus constant internal standard levels. Specific activity was determined during the linear phase of enzymatic reactions (i.e., less than 20% substrate utilized)

CC(C)c1ccccc1OC(=O)NCCc1ccc2ccccc2c1 [JW480, 2-isopropylphenyl (2-(naphthalen-2-yl)ethyl)carbamate]
Off-target activity across serine hydrolases (ABPP-MudPIT) [1]: no off-target activity
Selectivity for KIAA1363 in brain proteomes from treated mice (gel-based ABPP) (brain KIAA1363; 1-80 mg/kg, i.p. or oral, 4 hr): excellent selectivity
Dose required to completely inactivate brain KIAA1363 in SCID mice (brain KIAA1363; immunedeficient SCID mouse strain, oral): 80 mg/kg
Dose giving complete inhibition of brain KIAA1363, i.p. (brain KIAA1363; mice, i.p., 4 hr): 5 mg/kg
Dose giving complete inhibition of brain KIAA1363, oral (brain KIAA1363; normal mice, oral, 4 hr): 20 mg/kg
Duration of KIAA1363 inhibition in vivo (brain KIAA1363; single administration 20 mg/kg, oral): up to 24 hr
2-acetyl MAGE hydrolase activity (KIAA1363): completely blocked

Reference: patent US9249128B2 (priority 2010, dated 2016)
